Test: Intraperitoneal administration to intact rats: accumulation of metals in liver and kidney tissues
Assay type: in vivo
Conditions: day 1 and day 7 after drug withdrawal, 3750 μg of zinc per kg intraperitoneally, 7 injections
Method: Animals are placed in cages, 4 per cage, with free access to food/water. […] Administration is performed every other day, in the amount of 7 injections per animal (intraperitoneal method of drug administration). […] After the last injection, a half of the animals are maintained on hunger (for 12 hours) with free access to water. Upon expiration of this time period, the animals are taken out of the experiment. The second half of the animals continues to have free access to food/water for a further 7 days. On day 6 after the last injection, the animals are maintained on hunger (for 12 hours) with free access to water. Upon expiration of this time period, the animals are taken out of the experiment.
The total kidney, liver and muscle homogenates were prepared as follows. Organ excision and homogenization were carried out at a temperature of 1-4° C. […] The volume of the used buffer in ml was 5 times larger than the mass of isolated organs in grams. The isolated liver was perfused with chilled saline (0.9% NaCl) via the portal vein using a syringe. The minced liver was transferred to a homogenizer with a finely ground Teflon pestle and homogenized in chilled buffer. An isolated pair of kidneys was perfused with chilled saline, released from adipose tissue and minced with scissors. […]

In the case of CC(=O)[O-].CC(=O)[O-].[Zn+2] [Zn acetate, Zinc acetate], the “Zinc level in liver and kidney tissues” value is reported as “significantly increased”.

Source: US20210187016A1, “METHOD OF TREATING NONALCOHOLIC STEATOHEPATITIS” (Vector Vitale IP LLC, priority 2019, published 2021)
